# Data from US20080071190A1, “Timing of Ovulation Based on Vaginal Ph” (priority 2004, published 2008).
# Marks after values point to notes of the source that are not given here.
# Tests used:
# hECE cells = assay: Cell-vitality staining (MTT assay); assay type: cell-based, human; details: for hECE cell vitality (MTT staining normalized to OD570 of control unperturbed cells), Baseline / hECE cell vitality (MTT staining normalized to OD570 of control unperturbed cells), 30 min pHo: means ±SD; for hECE cell vitality (MTT staining normalized to OD570 of control unperturbed cells), 30 min pHo: after 30 min pHo measurement
# Experimental: Cell-vitality staining was done using the 3-[4,5-dimethylthiazol-2-yl]-2,5-diphenyl tetrazolium bromide (MTT) assay. MTT serves as a substrate for mitochondrial dehydrogenases, and only viable functional mitochondria are capable of cleaving MTT to generate the colored product formazan. MTT solution was prepared by dissolving MTT at a concentration of 5 mg/ml in phosphate-buffered saline (PBS) composed of (mM) NaCl (137), KCl (2.68), Na2HPO4 (10), KH2PO4 (1.76), pH 7.4, and filtering the solution through Millipore filter. Following treatments/assays, cells on filters were washed with fresh and warm (37° C.) PBS and incubated for 60 min at 37° C. in MTT solution. At the completion of incubation, cells were washed with PBS, and solubilized in isopropanol containing 0.1 M HCl plus 1% Triton X-100. Lysates were mixed by pipetting to dissolve the reduced MTT crystals (during which time the colorless solution turned purple) and were spinned at 10,000 g for 5 min. The solubilized formazan was measured by determining absorption at 570 nm. Background absorbance at 690 nm was subtracted for each sample, and values were normalized to OD570 (optic density) of control unperturbed cells.
# [1] = test system: hECE cells (Human Ectocervical-Vaginal Epithelial Cells); assay: Determinations of extracellular pH (pHo) in luminal and contra-luminal solutions of hECE cells cultured on filters; assay type: cell-based; details: for effect of co-treatment on estrogen-induced decrease in luminal pHo: hECE cells in steroid-free medium + 10 nM 17β-estradiol; for effect of co-treatment on estrogen-induced decrease in luminal pHo / effect on contra-luminal pHo: tamoxifen 10 μM; for effect of co-treatment on estrogen-induced decrease in luminal pHo / effect on luminal pHo, alone / effect on contra-luminal pHo: ICI-182780 10 μM; for effect of co-treatment on estrogen-induced decrease in luminal pHo / effect on luminal pHo, alone: progesterone 1 μM; for effect on luminal pHo, alone: without 17β-estradiol; for effect on contra-luminal pHo: progesterone 1 μM (not shown); for effect on estrogen-induced acidification of the luminal pHo: 10 nM 17β-estradiol, 30 min pre-treatment, bafilomycin A1 1 μM, ouabain 1 μM (contra-luminal), omeprazol 100 μM, FIG. 10; for effect on luminal pHo (specificity of estrogen effect): hormone at 10 nM, FIG. 8A
# Experimental: Referring to FIG. 4A, hECE cells or Human Endocervical Cells were plated on Anocell filters (Anocel™-10, Oxon, UK, obtained through Sigma Chemicals, St. Louis, Mo.), which are ceramic-base filters, pore size of 0.02 μm width, 50 μm depth, and surface area of 0.6 cm^2. Filters 300 and 302 were coated with 4 μg/cm^2 collagen type IV and incubated at 37° C. overnight. The remaining collagen solution was aspirated and the filter was dried at 37° C. Before plating, filters 300 were rinsed 3 times with Hanks' Balanced Salt Solution. Cells were plated either on the upper surface 302 of one filter 300 (for determinations of luminal pHo) or on the bottom surface 304 of the other filter 300 (for determinations of the contra-luminal pHo) at 3·10^5 cells/cm^2. By plating at this relatively high density the cultures became confluent within 12 hours after plating.
# Plates containing the filters were placed in a tissue culture incubator (37° C.), and pHo changes in the luminal and contra-luminal solutions were determined using AMANI-1000 microcombination pH electrodes 306 (Harvard Apparatus, Holliston, Mass., obtained through Genomics Solutions, Ann Harbor, Mich.). The AMANI-1000 pH sensor (stored in pH 7.0) is based on metal-metal oxide pH measurements and the pH sensitive layer is immobilized on plastic. The reference electrode employs an Ag/AgCl in 3.4 M KCl reference electrode, and the reference electrode junction is leak-free ensuring no leaks of KCl out of the reference electrode. The design of the pH electrodes 306 enabled their use for the purpose of the present experiments: tip diameter of 1 mm, depth of immersion 1 mm, and response time of less than 5 sec.
# Electrodes 306 attached to a stand were held stable with the tip immersed in the solution within the upper compartment of the filter to a depth of about 2 mm avoiding direct contact between the electrode tip and the cultured cells. The electrodes were connected directly to a pH meter 310 (e.g., Accumet pH meter 910) (Fisher Scientific, Suwanee Ga.). After stabilization, the luminal and contraluminal solutions were gently aspirated using glass pipette, and replaced with fresh warmed (37° C.) Basic Salt Solution containing (in mM) NaCl (140), KCl (5), MgCl2 (1), CaCl2 (1), glucose (10), and 0.1% bovine serum albumin, pH 7.4. The volumes in the luminal and contraluminal compartments were 150 μl and 500 μl, respectively. Determinations of changes in pHo were made at time 0, and at 5 min intervals thereafter for up to 30 min.
# To remove intracellular estrogens cells were grown in steroid-free medium as described. This procedure involved shifting cells on filters for three days prior to pHo assays to a medium composed of phenol-red-deficient (DMEM)/Ham's F12 or (Sigma Chemicals, St. Louis, Mo.) containing 8% heat inactivated fetal bovine serum that was previously treated with charcoal to remove steroids. Preparation of charcoal-treated serum was described; briefly, dextran-coated charcoal (Sigma Chemicals, St. Louis, Mo.) was dissolved at 8% in 0.15 M NaCl, autoclaved, mixed by stirring, spun and the pellet was resuspended as 1 gm/1.25 ml in H2O. Fetal bovine serum (Hyclone, Logan, Utah) was mixed with the activated charcoal-dextran at 20:1 (Vol:Vol) and incubated for 45 min at 55° C. At the completion of incubation the mixture was spun twice at 800 g for 20 min and the supernatant (serum) was decanted and collected. For experiments, cells were shifted to steroid-free medium for 3 days; alternatively, cells were shifted to the steroid-free medium for 24 hrs and treated with 17β-estradiol for two additional days.
# [2] = Steroid-Free Medium + 10 nM 17β-Estradiol + substance at the concentration given
# [3] = Steroid-Free Medium + substance, 3 to 4 repeats
# [4] = hECE cells in steroid-free medium
# [5] = hECE cells, steroid-free medium + estradiol, 1 μM for 30 min added to the luminal solution
SMILES,"hECE cell vitality (MTT staining normalized to OD570 of control unperturbed cells), Baseline (hECE cells; [2])","hECE cell vitality (MTT staining normalized to OD570 of control unperturbed cells), 30 min pHo (hECE cells; [2])","hECE cell vitality (MTT staining normalized to OD570 of control unperturbed cells), Baseline (hECE cells; [3])","hECE cell vitality (MTT staining normalized to OD570 of control unperturbed cells), 30 min pHo (hECE cells; [3])",effect of co-treatment on estrogen-induced decrease in luminal pHo [1],effect on contra-luminal pHo ([1]; hECE cells),effect on estrogen-induced acidification of the luminal pHo ([1]; hECE cells),other results
[Cl][Cd][Cl] [CdCl2],95 ± 2%,95 ± 3%,94 ± 2%,95 ± 9%,–,–,–,–
O=C(O)CN(CCOCCOCCN(CC(=O)O)CC(=O)O)CC(=O)O [EGTA],–,–,–,–,–,–,–,"effect on contra-luminal solution ([1]; hECE cells, 1.2 mM EGTA plus 1.2 mM CdCl2 in luminal and contra-luminal solutions): acidification of the contra-luminal solution; effect on luminal acidification ([1]; hECE cells, 1.2 mM EGTA plus 1.2 mM CdCl2 in luminal and contra-luminal solutions (extracellular calcium <0.1 mM)): blocked the luminal acidification; luminal pHo and contra-luminal pHo ([1]; hECE cells, following treatment with 1.2 mM EGTA (plus 1.2 mM CdCl2)): ~7.2"
C[C@]12CC[C@@H]3c4ccc(O)cc4C[C@@H](CCCCCCCCC[S+]([O-])CCCC(F)(F)C(F)(F)F)[C@H]3[C@@H]1CC[C@@H]2O (some centres unmarked) [ICI-182780],89 ± 9%,93 ± 6%,95 ± 8%,95 ± 3%,blocked,Neither tamoxifen ICI-182780 or progesterone had any appreciable effect,–,"effect on luminal pHo, alone [1, 4]: no effect"
CO/C1=C\C(C)=C\[C@@H](C)[C@@H](O)[C@@H](C)C/C(C)=C/C=C/[C@H](OC)[C@@H]([C@@H](C)[C@@H](O)[C@H](C)[C@@]2(O)C[C@@H](O)[C@H](C)[C@@H](C(C)C)O2)OC1=O [bafilomycin A1],93 ± 7%,92 ± 5%,94 ± 3%,95 ± 4%,–,–,blocked,"effect on the contra-luminal or luminal pHo ([1]; hECE cells, steroid-free medium + estradiol, 1 μM for 30 min added to the contra-luminal solution): no effect; effect on luminal pHo [1, 5]: significantly blocked the estrogen-decrease in luminal pHo; effect on the contra-luminal pHo [1, 5]: little effect"
CC/C(=C(/CC)c1ccc(O)cc1)c1ccc(O)cc1 [diethylstilbestrol],–,–,–,–,–,–,–,"effect on luminal pHo (specificity of estrogen effect) [1, 4]: could mimic 17β-estradiol decrease in luminal pHo"
COc1ccc2[nH]c([S+]([O-])Cc3ncc(C)c(OC)c3C)nc2c1 (centres unmarked) [omeprazol],91 ± 6%,95 ± 4%,92 ± 5%,95 ± 4%,–,–,no effect,–
C[C@@H]1O[C@@H](O[C@H]2C[C@@H](O)[C@]3(CO)[C@H]4[C@H](O)C[C@]5(C)[C@@H](C6=CC(=O)OC6)CC[C@]5(O)[C@@H]4CC[C@]3(O)C2)[C@H](O)[C@H](O)[C@H]1O [ouabain],"62 ± 4^a,b %",74 ± 9^b %,"71 ± 8^a,b %",69 ± 9^b %,–,–,attenuated mildly estradiol effect,"effect on luminal pHo in cells grown in steroid-free medium ([1]; hECE cells, no estradiol, ouabain 1 μM, 30 min, added to contra-luminal solution): mild alkalinization of luminal pHo; effect on MTT cleavage (cell viability) (hECE cells; hECE cells, treatments of Table 1): decreased MTT incorporation and staining"
CC(=O)[C@H]1CC[C@H]2[C@@H]3CCC4=CC(=O)CC[C@]4(C)[C@H]3CC[C@]12C [progesterone],91 ± 6%,95 ± 4%,95 ± 5%,95 ± 4%,no significant effect,Neither tamoxifen ICI-182780 or progesterone had any appreciable effect,–,"effect on luminal pHo, alone [1, 4]: no effect"
CC/C(=C(\c1ccccc1)c1ccc(OCCN(C)C)cc1)c1ccccc1 [tamoxifen],95 ± 3%,96 ± 4%,93 ± 4%,95 ± 4%,no significant effect,Neither tamoxifen ICI-182780 or progesterone had any appreciable effect,–,"luminal pHo ([1]; hECE cells in steroid-free medium, tamoxifen 10 μM alone, 24 hrs, decreased from 7.24±0.02, p<0.01): 7.15±0.02"
C[C@]12CC[C@H]3[C@@H](CCC4=CC(=O)CC[C@@]43C)[C@@H]1CC[C@@H]2O [testosterone],–,–,–,–,–,–,–,"effect on luminal pHo (specificity of estrogen effect) [1, 4]: no effect"
